organism: Rattus norvegicus; experiment: Effects of isomer (100 uM) upon 10 uM L-HCA-induced depolarization; Control; format: functional

Structure (SMILES)	Others [%]
NC(C(=O)O)[C@H](CC(=O)O)c1ccc(Cl)cc1 (stereo partly drawn)	130.4
N[C@@H](C(=O)O)[C@H](CC(=O)O)c1ccc(Cl)cc1	94.2
N[C@H](C(=O)O)[C@@H](CC(=O)O)c1ccc(Cl)cc1	114.5
